Assay results from patent publication US20230104074A1, “BORTEZOMIB COMPOSITIONS” (MAIA Pharmaceuticals, Inc., priority 2021, published 2023).

Legend:
[1] = DMSO in water formulations: dissolution, physical stability, effect of pH on chemical stability; assay type: physicochemical; conditions: 1 mg/mL, 1% (v/v) DMSO in water, pH 5.5
Protocol: Various concentrations of DMSO were explored as the non-aqueous component of the formulation (2% v/v to 5% v/v in water). Bortezomib was first completely dissolved in the batch volume of DMSO to form a concentrated “premix” solution prior to making up the batch to the target concentration (2.5 mg/mL) with water. This was done to facilitate the subsequent dissolution of bortezomib in the aqueous component. The pH values of the formulations were all approximately 7.
The effect of pH on bortezomib formulations using a low concentration of DMSO in water (4.5% v/v DMSO for the 2.5 mg/mL strength and 1% v/v DMSO for the 1 mg/mL strength) was then assessed. In each case, the bortezomib was first fully dissolved in the batch quantity of DMSO to form a concentrated premix solution, which was then added to water, and the pH adjusted with sodium hydroxide and/or hydrochloric acid to pH ranging from 4 to 8.5. […] Because oxidative degradation is a significant degradation pathway for bortezomib, filled vials were overlayed with nitrogen. These batches were placed on stability at accelerated (25° C.) and long-term storage conditions (2-8° C.). […]

[2] = Formulation attempts at 2.5 mg/mL with low concentrations of benzyl alcohol and other non-aqueous solvents; assay type: physicochemical
Protocol: Initial formulation experiments with low concentrations of various non-aqueous solvents were conducted targeting a bortezomib concentration of 2.5 mg/mL. Attempts to solubilize bortezomib were conducted using low concentrations of benzyl alcohol (2% v/v), or dimethyl sulfoxide (5% v/v), or a combination of these solvents. […] For these formulations, the non-aqueous solvent was added to bortezomib to dissolve it, followed by addition of water to the bortezomib-solvent mixture.

Total Impurities after 2 months at 25° C. (%) [1]: 0.52% | Dissolution on addition of water to bortezomib-solvent mixture ([2]; target 2.5 mg/mL, benzyl alcohol (2% v/v), DMSO (5% v/v) or combination, mixing >3 hours): precipitated after addition of water
Compound: CC(C)C[C@H](NC(=O)[C@H](Cc1ccccc1)NC(=O)c1cnccn1)B(O)O [Bortezomib, [(1R)-3-methyl-1-[[(2S)-1-oxo-3-phenyl-2-[(pyrazinylcarbonyl)amino]propyl]amino]butyl] boronic acid]
Appearance on heating the solution ([2]; heating up to 70° C., precipitated bortezomib not dissolved): a pink color formed indicating degradation of the active
